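The compound was tested at five concentrations on cells cultured in 96-well plates, with a 48-hour exposure period. TGI: concentration producing complete growth inhibition.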 A value given as a limit tells only on which side of the number the result lay.

Test systems include IGROV1 ovarian; OVCAR-3 ovarian; CAKI-1 renal; SNB-78 CNS; OVCAR-4 ovarian; OVCAR-8 ovarian; HL-60(TB) leukemia; K-562 leukemia; SK-MEL-28 melanoma.
Holding throughout (assay): NCI tumour cell line growth inhibition, 48 h

On to `C=C1C(=O)OC2/C=C(\C)C(OC(C)=O)C3OC3C(C)(O)CC(OC(=O)/C(C)=C/C)C12` (stereo not drawn), for which the TGI in the assay on IGROV1 ovarian is 35.7 µM; in the assay on OVCAR-3 ovarian, 15.8 µM; in the assay with CAKI-1 renal, 5.94 µM; in the assay with SNB-78 CNS it was 30.5 µM; in the assay with OVCAR-4 ovarian, 62.2 µM; in the assay with OVCAR-8 ovarian it was 24.4 µM. For the same compound, the TGI with HL-60(TB) leukemia amounted to 5.81 µM; with K-562 leukemia, 18.9 µM; in the assay on SK-MEL-28 melanoma it was 16.2 µM.
With `COc1ccc(Cn2c(C)nc3c2C(=O)c2ccccc2C3=O)cc1`, the TGI with IGROV1 ovarian was 38.6 µM; with OVCAR-3 ovarian it was 24 µM; with SNB-78 CNS it was over 75 µM; in the assay with OVCAR-4 ovarian, 64.1 µM; in the assay on OVCAR-8 ovarian, over 75 µM; in the assay with HL-60(TB) leukemia it was 22.2 µM. Further, the TGI was 30.1 µM in the assay with K-562 leukemia and over 75 µM in the assay on SK-MEL-28 melanoma.
For `CC12CC3C(CC1SCC(=O)O2)C3(C)C` (stereo not drawn), the TGI in the assay on IGROV1 ovarian, in the assay with OVCAR-3 ovarian, with SNB-78 CNS, in the assay on OVCAR-4 ovarian, in the assay with OVCAR-8 ovarian and with HL-60(TB) leukemia was over 100 µM throughout. For the same compound, the TGI with K-562 leukemia and in the assay with SK-MEL-28 melanoma was over 100 µM throughout.
`COc1cc(CCc2cccnc2)cc(OC)c1OC`: the TGI in the assay on IGROV1 ovarian, with OVCAR-3 ovarian, with CAKI-1 renal, in the assay with SNB-78 CNS, in the assay on OVCAR-4 ovarian and in the assay with OVCAR-8 ovarian was over 100 µM throughout. In addition, the TGI in the assay on HL-60(TB) leukemia, in the assay with K-562 leukemia and in the assay with SK-MEL-28 melanoma was over 100 µM each time.
Take `COc1c2c(c3c(c1C1OC(C)[C@@H](C)O1)CC(C)(C)O3)C(=O)c1ccccc1C2=O` (stereo partly drawn): the TGI in the assay with IGROV1 ovarian, in the assay on OVCAR-3 ovarian, in the assay on CAKI-1 renal, in the assay with SNB-78 CNS, with OVCAR-4 ovarian and with OVCAR-8 ovarian was over 100 µM each time. The values for the TGI with HL-60(TB) leukemia, in the assay with K-562 leukemia and in the assay on SK-MEL-28 melanoma were 31.6 µM, over 100 µM and over 100 µM, respectively.
With `CC(=O)OCC1OC(Nc2[nH]c(=O)n(C)c(=O)c2-c2csc(N)n2)C(OC(C)=O)C(OC(C)=O)C1OC(C)=O` (stereo not drawn), the TGI with IGROV1 ovarian, with OVCAR-3 ovarian, with CAKI-1 renal, in the assay with SNB-78 CNS, with OVCAR-4 ovarian and in the assay on OVCAR-8 ovarian was over 100 µM throughout. Besides, the TGI in the assay on HL-60(TB) leukemia, with K-562 leukemia and in the assay on SK-MEL-28 melanoma was over 100 µM each time.
`O=C(Nc1cccc2ccccc12)Oc1ccccc1C1CCCCC1`: the TGI in the assay on IGROV1 ovarian turned out to be 51.2 µM; with OVCAR-3 ovarian, 39.5 µM; with SNB-78 CNS, 57.9 µM; in the assay with OVCAR-4 ovarian, 32.7 µM; in the assay on OVCAR-8 ovarian, 32.5 µM; in the assay with HL-60(TB) leukemia it was 64.2 µM. Further, the TGI in the assay with K-562 leukemia was 60.4 µM; in the assay on SK-MEL-28 melanoma, 38.1 µM.
On to `O=C(O)CCCl`, for which the TGI in the assay on IGROV1 ovarian, in the assay on CAKI-1 renal, in the assay on SNB-78 CNS, with OVCAR-4 ovarian, in the assay on OVCAR-8 ovarian and in the assay with HL-60(TB) leukemia was over 5000 µM each time. Also, the TGI in the assay on K-562 leukemia and in the assay on SK-MEL-28 melanoma was over 5000 µM each time.
Turning to `CN(C)CC(/C(Cc1ccccc1)=N\NC(=O)C[n+]1ccccc1)c1ccccc1` (stereo not drawn), the TGI with IGROV1 ovarian, with OVCAR-3 ovarian, in the assay with CAKI-1 renal, in the assay on SNB-78 CNS, in the assay on OVCAR-4 ovarian and in the assay with OVCAR-8 ovarian was over 100 µM throughout. The TGI with HL-60(TB) leukemia, in the assay on K-562 leukemia and in the assay on SK-MEL-28 melanoma was over 100 µM each time.
For `O=C(Nc1c(O)[nH]c(=S)[nH]c1=O)c1ccccn1`, the TGI in the assay with IGROV1 ovarian, in the assay with OVCAR-3 ovarian, in the assay with CAKI-1 renal, with SNB-78 CNS, in the assay with OVCAR-4 ovarian and in the assay with OVCAR-8 ovarian was over 100 µM in each case. Further, the TGI in the assay on HL-60(TB) leukemia, with K-562 leukemia and in the assay with SK-MEL-28 melanoma was over 100 µM throughout.
On to `C[N+]1(C)CCCC1C(=O)[O-]` (stereo not drawn), for which the TGI in the assay on IGROV1 ovarian, in the assay with OVCAR-3 ovarian, in the assay with SNB-78 CNS, in the assay on OVCAR-4 ovarian, in the assay on OVCAR-8 ovarian and in the assay with HL-60(TB) leukemia was over 100 µM each time. For the same compound, the TGI with K-562 leukemia and in the assay with SK-MEL-28 melanoma was over 100 µM each time.
As for `Cc1c2cc[nH]c(C(F)(F)F)c2cc2c1nc1ccccc12`, the TGI in the assay with IGROV1 ovarian, in the assay on OVCAR-3 ovarian, in the assay with CAKI-1 renal, in the assay with SNB-78 CNS, with OVCAR-4 ovarian and in the assay with OVCAR-8 ovarian was over 125 µM in each case. Also, the TGI with HL-60(TB) leukemia, in the assay with K-562 leukemia and in the assay with SK-MEL-28 melanoma was over 125 µM each time.

These data come from PubChem BioAssay (NCI).
